Where two headings read alike, the source gives them in different places.
Experiments:
α4β1 [1] = molecular target: T1, α4β1 (Homo sapiens, UniProt P05556+P13612); test: Kinetic binding to α4β1 on Jurkat cells, competition with 35S-B as probe for free α4β1; design: endogenous in cells; host or cells: Jurkat human T-cell line; details: for koff: read-out: koff/10^−4; for kon: read-out: kon/10^6; for Kd: calculated from on- and off-rate constants
Description: All cells were periodically monitored for high integrin surface expression by FACS analysis. The binding of the various inhibitors to α4β1 were assessed on Jurkat cells by competition using radioactive ^35S-B as a reporter for a 1 occupancy. Jurkat cells were pelleted by centrifugation, washed two times with TBS (50 mM Tris HCl, 150 mM NaCl, 0.1% bovine serum albumin, 2 mM glucose, 10 mM HEPES pH 7.4), suspended at approximately 2×10^6 cells/mL in TBS, and counted using a Neubauer hemocytometer. The cells were further diluted 2×10^6 cells/mL with TBS containing 1 mM CaCl2 and 1 mM MgCl2 and treated with serial dilutions of test compound for 1 hour, and then 5 nM ^35S-B, an amount sufficient to bind all unoccupied receptors, was added for 10 minutes before measuring the bound counts. The cells were then pelleted by centrifugation, resuspended in 100 μL of TBS plus Mn^2+, and transferred to a scintillation vial containing 2.9 mL of ScintiVerse II (Fisher Scientific). Cell-associated radioactivity was quantified by scintillation counting. All studies were performed in siliconized 1.5 mL eppendorf tubes with a standard 1 mL sample volume. Each condition was tested in at least two independent studies. Non-specific binding of ^35S-B to cells was assessed at each cell density and ^35S-B concentration in TBS but in the absence of added metal ion. Specific counts bound were calculated by subtracting non specific counts from total counts bound. Counts bound under these conditions measures integrin that is not occupied by the test compound and is therefore free to bind the ^35S-B. The competition format was also used for kinetic binding studies. Binding and dissociation constants were calculated from α4β1 that remained free to bind the ^35S-B after treatment with test compound.
The affinities of the PEGylated inhibitors for α4β1 were calculated from association and disassociation rate constants using a kinetic analysis. For these studies, Jurkat cells expressing α4β1 (75,000 copies/cell) were treated with the inhibitors and then ^35S-B was added as a probe to detect free α4β1. The levels of bound inhibitor were calculated from a measure of total ^35S-B bound in the absence of added inhibitor and counts bound following inhibitor treatment.

α4β1 [2] = molecular target: T1, α4β1; test: Equilibrium binding on Jurkat cells, competition with 35S-B as reporter
Description: The α4β1-expressing Jurkat human T-cell line (a gift from S. Burakoff, Dana Farber Cancer Institute, Boston, Mass.), and the α4β7-expressing human B-cell line, JY (American Type Tissue Collection, Rockville, Md.) were maintained in culture at 37° C. in RPMI-1640 medium supplemented with 10% fetal bovine serum (FBS). K562 cell lines transfected with either the human α1-integrin chain (Phil Gotwells, Biogen, Inc) or with the human α2 integrin chain (a gift from M. Hemler, Dana Farber Cancer Institute, Boston, Mass.) were maintained in RPMI-1640 medium supplemented with 10% FBS and 1 mg/mL G418. All cells were periodically monitored for high integrin surface expression by FACS analysis. The binding of the various inhibitors to α4β1 were assessed on Jurkat cells by competition using radioactive ^35S-B as a reporter for a 1 occupancy. Jurkat cells were pelleted by centrifugation, washed two times with TBS (50 mM Tris HCl, 150 mM NaCl, 0.1% bovine serum albumin, 2 mM glucose, 10 mM HEPES pH 7.4), suspended at approximately 2×10^6 cells/mL in TBS, and counted using a Neubauer hemocytometer. The cells were further diluted 2×10^6 cells/mL with TBS containing 1 mM CaCl2 and 1 mM MgCl2 and treated with serial dilutions of test compound for 1 hour, and then 5 nM ^35S-B, an amount sufficient to bind all unoccupied receptors, was added for 10 minutes before measuring the bound counts. The cells were then pelleted by centrifugation, resuspended in 100 μL of TBS plus Mn^2+, and transferred to a scintillation vial containing 2.9 mL of ScintiVerse II (Fisher Scientific). Cell-associated radioactivity was quantified by scintillation counting. All studies were performed in siliconized 1.5 mL eppendorf tubes with a standard 1 mL sample volume. Each condition was tested in at least two independent studies. Non-specific binding of ^35S-B to cells was assessed at each cell density and ^35S-B concentration in TBS but in the absence of added metal ion. Specific counts bound were calculated by subtracting non specific counts from total counts bound. Counts bound under these conditions measures integrin that is not occupied by the test compound and is therefore free to bind the ^35S-B. The competition format was also used for kinetic binding studies. Binding and dissociation constants were calculated from α4β1 that remained free to bind the ^35S-B after treatment with test compound.
The affinities of the PEGylated inhibitors for α4β1 were calculated from association and disassociation rate constants using a kinetic analysis. For these studies, Jurkat cells expressing α4β1 (75,000 copies/cell) were treated with the inhibitors and then ^35S-B was added as a probe to detect free α4β1. The levels of bound inhibitor were calculated from a measure of total ^35S-B bound in the absence of added inhibitor and counts bound following inhibitor treatment. […] IC50 values were calculated from equilibrium binding studies on Jurkat cells through competition using ^35S-B as a reporter in buffer containing 1 mM Ca^2+ and 1 mM Mg^2+.
Second, the effect of protein binding on the affinity of the PEGylated inhibitors for α4β1 on Jurkat cells was evaluated from equilibrium binding measurements.

α4β1 [3] = molecular target: T1, α4β1; test: VCAM-Ig direct binding assay (DBA), Jurkat cells
Excerpt: A direct binding assay may also be employed to quantitate the inhibitory activity of the compounds. In this assay, a VCAM-IgG fusion protein containing the first two immunoglobulin domains of VCAM (D1D2) attached above the hinge region of an IgG1 molecule (“VCAM 2D-IgG”), is conjugated to a marker enzyme, such as alkaline phosphatase (“AP”). […] The conjugation of that fusion to a marker enzyme is achieved by cross-linking methods well-known in the art.
The VCAM-IgG enzyme conjugate is then placed in the wells of a multi-well filtration plate, such as that contained in the Millipore Multiscreen Assay System (Millipore Corp., Bedford, Mass.). Varying concentrations of the test inhibitory compound are then added to the wells followed by addition of VLA-4-expressing cells. The cells, compound and VCAM-IgG enzyme conjugate are mixed together and allowed to incubate at room temperature. Following incubation, the wells are vacuum drained, leaving behind the cells and any bound VCAM. Quantitation of bound VCAM is determined by adding an appropriate calorimetric substrate for the enzyme conjugated to VCAM-IgG and determining the amount of reaction product. Decreased reaction product indicates increased binding inhibitory activity.
Samples were also evaluated for function using the VCAM-Ig direct binding assay. Details for the construction of the VCAM-Ig animal cell expression vector, the generation of a Chinese hamster ovary (CHO) cell line expressing VCAM-Ig, conjugation of the VCAM-Ig to alkaline phosphatase, and the development of a direct binding assay for characterizing α4β1 and α4β7 binding to VCAM-Ig were as previously described (see Lobb, R. R., et al. (1995) Cell Adhes. Commun. 3:385–397).
For these studies, a series of compounds based on compound E containing 0.35, 2, 5, 20, 30, and 50 kDa-mPEG was synthesized and tested for binding to α4β1 on Jurkat cells with VCAM-Ig as a reporter (see methods).

[4] = IC50, buffer with 1 mM Ca2+ and 1 mM Mg2+, no plasma

T1 sequence (P13612 34-1032): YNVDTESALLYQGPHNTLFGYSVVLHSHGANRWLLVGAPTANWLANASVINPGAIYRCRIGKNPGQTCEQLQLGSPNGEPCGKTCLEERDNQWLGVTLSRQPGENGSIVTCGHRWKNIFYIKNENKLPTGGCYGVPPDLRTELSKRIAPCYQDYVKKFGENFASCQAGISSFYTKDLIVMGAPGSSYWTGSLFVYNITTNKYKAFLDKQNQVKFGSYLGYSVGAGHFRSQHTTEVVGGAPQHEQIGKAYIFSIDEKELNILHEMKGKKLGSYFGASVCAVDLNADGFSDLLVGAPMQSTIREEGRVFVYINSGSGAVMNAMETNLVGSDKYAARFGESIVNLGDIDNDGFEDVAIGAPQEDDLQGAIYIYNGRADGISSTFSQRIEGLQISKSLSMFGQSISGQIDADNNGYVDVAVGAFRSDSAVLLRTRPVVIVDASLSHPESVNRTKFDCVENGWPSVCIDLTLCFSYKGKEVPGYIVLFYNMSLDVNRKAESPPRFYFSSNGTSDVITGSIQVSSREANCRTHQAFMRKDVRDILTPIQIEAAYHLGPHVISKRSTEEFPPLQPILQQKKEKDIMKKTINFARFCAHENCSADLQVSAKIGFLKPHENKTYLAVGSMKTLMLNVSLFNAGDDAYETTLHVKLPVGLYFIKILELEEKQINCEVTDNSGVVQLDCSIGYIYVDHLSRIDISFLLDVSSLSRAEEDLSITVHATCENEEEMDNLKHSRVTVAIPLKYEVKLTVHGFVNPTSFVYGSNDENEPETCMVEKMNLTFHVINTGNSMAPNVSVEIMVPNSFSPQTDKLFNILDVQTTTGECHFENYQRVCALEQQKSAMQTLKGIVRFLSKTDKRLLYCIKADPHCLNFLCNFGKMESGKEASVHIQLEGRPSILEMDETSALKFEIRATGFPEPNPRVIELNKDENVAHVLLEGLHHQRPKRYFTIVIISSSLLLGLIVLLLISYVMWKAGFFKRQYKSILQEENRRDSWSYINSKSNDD
T1 sequence (P05556 21-798): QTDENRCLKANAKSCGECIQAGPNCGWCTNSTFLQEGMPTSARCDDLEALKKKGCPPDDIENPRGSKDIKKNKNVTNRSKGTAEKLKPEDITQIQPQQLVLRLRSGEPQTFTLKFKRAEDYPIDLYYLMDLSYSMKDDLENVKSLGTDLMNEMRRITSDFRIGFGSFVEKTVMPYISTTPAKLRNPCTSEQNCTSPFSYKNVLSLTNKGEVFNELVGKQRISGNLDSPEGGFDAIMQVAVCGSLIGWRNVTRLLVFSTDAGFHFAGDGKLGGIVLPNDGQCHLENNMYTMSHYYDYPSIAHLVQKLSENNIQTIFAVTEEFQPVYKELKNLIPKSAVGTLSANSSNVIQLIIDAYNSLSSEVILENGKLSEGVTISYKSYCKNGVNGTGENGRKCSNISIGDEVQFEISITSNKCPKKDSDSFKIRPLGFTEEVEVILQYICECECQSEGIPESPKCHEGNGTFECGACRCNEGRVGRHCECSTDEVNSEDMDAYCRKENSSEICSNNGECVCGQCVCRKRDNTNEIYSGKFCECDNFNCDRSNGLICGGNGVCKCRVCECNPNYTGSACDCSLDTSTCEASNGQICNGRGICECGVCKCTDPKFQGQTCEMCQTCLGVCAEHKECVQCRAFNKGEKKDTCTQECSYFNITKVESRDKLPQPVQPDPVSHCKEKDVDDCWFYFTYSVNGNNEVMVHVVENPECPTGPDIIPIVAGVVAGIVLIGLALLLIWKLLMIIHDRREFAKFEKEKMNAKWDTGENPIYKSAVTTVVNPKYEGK

Row | koff (α4β1 [1]; Jurkat cells, 35S-B probe) [s⁻¹] | kon (α4β1 [1]; Jurkat cells, 35S-B probe) [M⁻¹ s⁻¹] | SMILES | Kd (α4β1 [1]; Jurkat cells) [nM] | IC50 (α4β1 [2]; IC50(HP), 100% human plasma) [nM] | IC50 (α4β1 [2]; [4]) [nM] | DBA 100% rat plasma, % @ 50 nM (α4β1 [3]; 100% rat plasma, 50 nM) | IC50 (α4β1 [3]; read-out: DBA IC50 Ca2+Mg2+, Ca2+Mg2+) [nM] | IC50 (α4β1 [3]; read-out: DBA IC50 Mn2+, Mn2+) [nM] | % bound Ca2+Mg2+ 30 min (α4β1 [1]; Ca2+Mg2+, 30 min) [%] | % bound Mn2+ 60 min (α4β1 [1]; Mn2+, 60 min) [%] | koff (α4β1 [1]) [s⁻¹] | kon (α4β1 [1]) [M⁻¹ s⁻¹]
1 | 0.00012 | 3e+06 | Cc1ccccc1NC(=O)Nc1ccc(CC(=O)N(C)[C@@H](CC(C)C)C(=O)NCC[C@H](NC(=O)[C@@H]2C[C@@H](N)CN2S(=O)(=O)c2ccccc2)C(=O)O)cc1 [C] | 0.04 | 2.1 | 1.2 | – | – | – | – | – | – | –
2 | – | – | Cc1ccccc1NC(=O)Nc1ccc(CC(=O)N(C)C(CC(C)C)C(=O)NCCC(NC(=O)C2CC(NC(=O)CCCCCNC(=O)CCCCCCC(=O)NCCCCCC(=O)NC3CC(C(=O)NC(CCNC(=O)C(CC(C)C)N(C)C(=O)Cc4ccc(NC(=O)Nc5ccccc5C)cc4)C(=O)O)N(S(=O)(=O)c4ccccc4)C3)CN2S(=O)(=O)c2ccccc2)C(=O)O)cc1 (stereo not drawn) [Q] | – | – | – | (0% @ | 74 | 4.3 | 0.1 | 93 | – | –
3 | – | – | Cc1ccccc1NC(=O)Nc1ccc(CC(=O)N(C)[C@@H](CCCCNC(=O)CCCCCN)C(=O)NCC[C@H](NC(=O)[C@@H]2CCCN2S(=O)(=O)c2ccccc2)C(=O)O)cc1 [Compound A, 4-[6-(6-Amino-hexanoylamino)-2(S)-(methyl-{2-[4-(3-o-tolyl-ureido)-phenyl]-acetyl}-amino)-hexanoylamino]-2(S)-[(1-benzenesulfonyl-pyrrolidine-2(S)-carbonyl)-amino]-butyric acid] | 0.25 | 2.1 | 0.35 | – | – | – | – | – | 0.00053 | 2e+06
4 | – | – | Cc1ccccc1NC(=O)Nc1ccc(CC(=O)N(C)C(CC(C)C)C(=O)NCCC(NC(=O)[C@@H]2C[C@H](NC(=O)CCCCCN)CN2S(=O)(=O)c2ccccc2)C(=O)O)cc1 (relative stereo) [D] | 0.061 | 7.9 | 1.5 | – | – | – | – | – | 0.0002 | 3.3e+06
5 | – | – | Cc1ccccc1NC(=O)Nc1ccc(CC(=O)N(C)C(CC(C)C)C(=O)NCCC(NC(=O)[C@@H]2C[C@@H](NC(=O)CCCCCN)CN2S(=O)(=O)c2ccccc2)C(=O)O)cc1 (relative stereo) [E] | 0.044 | 2.3 | 1.4 | – | – | – | – | – | 0.00011 | 2.5e+06
6 | 0.00024 | 3.4e+06 | Cc1ccccc1NC(=O)Nc1ccc(CC(=O)N(C)[C@@H](CC(C)C)C(=O)NCC[C@H](NC(=O)[C@@H]2C[C@H](N)CN2S(=O)(=O)c2ccccc2)C(=O)O)cc1 [F] | 0.07 | 8.7 | 3.5 | – | – | – | – | – | – | –
